Measurements reported in ChEMBL document CHEMBL3228010, “Potential antitumor agents. 29. Quantitative structure-activity relationships for the antileukemic bisquaternary ammonium heterocycles” (J Med Chem, 1979).
“And” between values parts separate entries of the source, which are not always exact repeats. Identical values can stand only once.

Assays:
L1210 [1] = experiment: Antitumor activity against mouse L1210 cells […] in ip dosed C3H X DBA2 F1 hybrid mouse on day 0 and dosed at LD10 level once daily on days 1 to 5 assessed as increase in life span relative to control; assay type: functional
Bos taurus = species: Bos taurus; experiment: Displacement of ethidium from calf thymus DNA by fluorimetric method
Mus musculus = experiment: Toxicity in ip dosed C3H X DBA2 F1 hybrid mouse […] with mouse L1210 cells on day 0 and dosed once daily on days 1 to 5 measured after 50 days; assay type: organism-based; settings: in vivo, 1200 h
L1210 [2] = experiment: Antitumor activity against mouse L1210 cells […] in ip dosed C3H X DBA2 F1 hybrid mouse on day 0 and dosed once daily on days 1 to 5 assessed as increase in life span relative to control; assay type: functional
[3] = Lipophilic-hydrophilic balance, Rm of the compound by partition chromatography; assay type: physicochemical
[4] = Displacement of ethidium from poly[d(A)]-poly[d(T)] DNA (unknown origin) by fluorimetric method
[5] = Displacement of ethidium from poly[d(A-T)]-poly[d(A-T)] DNA by fluorimetric method
[6] = Displacement of ethidium from poly[d(G-C)]-poly[d(G-C)] DNA (unknown origin) by fluorimetric method

SMILES | log(ILSmax) (L1210 [1]) | C50 (Bos taurus) | LD10 (Mus musculus) [mg/kg] | D40 (L1210 [2]) [mg/kg] | Rm [3] | C50 [4] [µM] | C50 [5] | C50 [6]
C[n+]1ccc(Nc2ccc(NC(=O)c3ccc(Nc4cc[n+](C)c5ccc(N)cc45)cc3N)cc2)cc1.[I-].[I-] | 2.45 | 0.49 µM | 20 | 2.9 | 0.01 | 0.039 | 0.1 µM | 1.1 µM
C[n+]1ccc(Nc2ccc(NC(=O)c3ccc(Nc4cc[n+](C)c5c(N)cccc45)cc3)cc2)cc1.[I-].[I-] | 2.48 | 0.85 µM | 60 | 0.9 | -0.1 | 0.056 | 0.2 µM | 1.43 µM
C[n+]1ccc(Nc2ccc(NC(=O)c3ccc(Nc4cc[n+](C)c5ccc(N)cc45)cc3)cc2N)cc1.[I-].[I-] | 2.18 | 0.71 µM | 3 | 0.7 | -0.03 | 0.067 | 0.23 µM | 1.3 µM
CC[n+]1cccc(NC(=O)c2ccc(NC(=O)c3ccc(C(=O)Nc4ccc(C(=O)Nc5ccc[n+](CC)c5)cc4)cc3)cc2)c1.Cc1ccc(S(=O)(=O)[O-])cc1.Cc1ccc(S(=O)(=O)[O-])cc1 | 2.24 | 0.48 µM | 33 | 9.8 | -0.32 | 0.11 | 0.4 µM | 0.9 µM
C[n+]1ccccc1Nc1ccc(NC(=O)c2ccc(C(=O)Nc3ccc(Nc4cccc[n+]4C)cc3)cc2)cc1.Cc1ccc(S(=O)(=O)[O-])cc1.Cc1ccc(S(=O)(=O)[O-])cc1 | <1.4 | 5.6 µM | 16 | – | 0.13 | 0.15 | 2.8 µM | 8.8 µM
C[n+]1ccc(Nc2ccc(NC(=O)c3ccc(Nc4cc[n+](C)c5ccccc45)cc3)cc2N)cc1.[I-].[I-] | 1.85 | 2.25 µM | 8 | 2.8 | 0.24 | 0.052 | 0.43 µM | 4.76 µM
C[n+]1ccc(Nc2ccc(NC(=O)c3ccc(Nc4cc[n+](C)c5c(Cl)cccc45)cc3)cc2)cc1.Cc1ccc(S(=O)(=O)[O-])cc1.Cc1ccc(S(=O)(=O)[O-])cc1 | 1.7 | 1.1 µM | 55 | 50 | 0.51 | 0.038 | 0.29 µM | 1.4 µM
C[n+]1ccc(Nc2ccc(NC(=O)c3ccc(Nc4cc[n+](C)c5ccccc45)cc3)cc2)cc1.[Br-].[Br-] | 2.23 | 1.4 µM | 13 | 2 | 0.29 | 0.036 | 0.16 µM | 3 µM
C/C(=N\NC(=N)N)c1ccc(C(=O)Nc2ccc(Nc3cc[n+](C)c4ccc(N)cc34)cc2)cc1.Cc1ccc(S(=O)(=O)O)cc1.Cc1ccc(S(=O)(=O)[O-])cc1 | 2.37 | 0.4 µM | 40 | 2.6 | -0.1 | 0.057 | 0.12 µM | 0.52 µM
C[n+]1ccc(Nc2ccc(NC(=O)c3ccc(Nc4cc[n+](C)c5ccc(N)cc45)cc3)cc2)cc1.[Br-].[Br-] | 2.35 | 0.66 µM | 12 | 1.2 | 0.07 | 0.048 | 0.09 µM | 1.05 µM
Cc1cc(C(=O)Nc2ccc[n+](C)c2)ccc1NC(=O)c1ccc(C(=O)Nc2ccc(C(=O)Nc3ccc[n+](C)c3)cc2C)cc1.Cc1ccc(S(=O)(=O)[O-])cc1.Cc1ccc(S(=O)(=O)[O-])cc1 | 1.79 | 11.7 µM | 40 | 27 | 0.12 | 0.35 | 6 µM | 16.7 µM
CCC[n+]1cccc(NC(=O)c2ccc(NC(=O)c3ccc(C(=O)Nc4ccc(C(=O)Nc5ccc[n+](CCC)c5)cc4)cc3)cc2)c1.Cc1ccc(S(=O)(=O)[O-])cc1.Cc1ccc(S(=O)(=O)[O-])cc1 | 2.06 | 0.44 µM | 27 | 12.9 | 0.13 | 0.12 | 0.39 µM | 0.9 µM
C[n+]1cccc(-c2ccc(NC(=O)c3ccc(C(=O)Nc4ccc(-c5ccc(-c6ccc(-c7ccc[n+](C)c7)cc6)cc5)cc4)cc3)cc2)c1.Cc1ccc(S(=O)(=O)[O-])cc1.Cc1ccc(S(=O)(=O)[O-])cc1 | 2.1 | 0.29 µM | 65 | 17.9 | -0.75 | 0.16 | 0.22 µM | 0.37 µM
CCCC[n+]1cccc(NC(=O)c2ccc(NC(=O)c3ccc(C(=O)Nc4ccc(C(=O)Nc5ccc[n+](CCCC)c5)cc4)cc3)cc2)c1.Cc1ccc(S(=O)(=O)[O-])cc1.Cc1ccc(S(=O)(=O)[O-])cc1 | 1.76 | 0.46 µM | 58 | 30 | 0.51 | 0.14 | 0.41 µM | 0.93 µM
C[n+]1cccc(NC(=O)c2ccc(C(=O)Nc3ccc[n+](C)c3)cc2)c1.Cc1ccc(S(=O)(=O)[O-])cc1.Cc1ccc(S(=O)(=O)[O-])cc1 | <1.4 | 61 µM | 5 | – | 0 | 3.8 | 63 µM | 80 µM
CC[n+]1ccc(Nc2ccc(NC(=O)c3ccc(Nc4cc[n+](CC)c5cc(N)ccc45)cc3N)cc2)cc1.[Br-].[Br-] | 2.39 | 0.52 µM | 11 | 1.4 | 0.07 | 0.054 | 0.13 µM | 1.11 µM
C[n+]1cccc(NC(=O)c2ccc(NC(=O)c3ccc(C(=O)Nc4ccc(C(=O)Nc5ccc[n+](C)c5)cc4)cc3)cc2)c1 | – | 0.83 µM and 0.42 µM | – | – | – | 0.13 | 0.79 µM and 0.41 µM | 1.6 µM and 0.91 µM
C[n+]1cccc(NC(=O)c2ccc(NC(=O)c3ccc(C(=O)Nc4ccc[n+](C)c4)cc3)cc2)c1.Cc1ccc(S(=O)(=O)[O-])cc1.Cc1ccc(S(=O)(=O)[O-])cc1 | <1.4 | 11.2 µM | 4 | – | -0.11 | 0.325 | 7.7 µM | 22 µM
C/C(=N\NC(=N)N)c1ccc(NC(=O)c2ccc(Nc3cc[n+](C)c4cc([N+](=O)[O-])ccc34)cc2)cc1.Cl.[Cl-] | 2.18 | 0.2 µM | 56 | 5.9 | -0.24 | – | 0.13 µM | 0.74 µM
C[n+]1cccc(NC(=O)c2ccc(NC(=O)c3cccc(C(=O)Nc4ccc(C(=O)Nc5ccc[n+](C)c5)cc4)c3)cc2)c1.Cc1ccc(S(=O)(=O)[O-])cc1.Cc1ccc(S(=O)(=O)[O-])cc1 | 1.85 | 0.9 µM | 35 | 25 | 0.2 | – | 1.2 µM | 1.9 µM
